Numbering of substitutions follows the chain as printed.
What was measured:
AlaRS^G102R = biological target: T1, AlaRS^G102R (Homo sapiens, UniProt P49588, G102R); experiment: Proteolytic digestion assay (trypsin, SDS-PAGE); details: three hours
T1 construct: made in house; host or cells: E. coli BL21 (DE3), pET-21a
T1 sequence (P49588 1-968 G102R): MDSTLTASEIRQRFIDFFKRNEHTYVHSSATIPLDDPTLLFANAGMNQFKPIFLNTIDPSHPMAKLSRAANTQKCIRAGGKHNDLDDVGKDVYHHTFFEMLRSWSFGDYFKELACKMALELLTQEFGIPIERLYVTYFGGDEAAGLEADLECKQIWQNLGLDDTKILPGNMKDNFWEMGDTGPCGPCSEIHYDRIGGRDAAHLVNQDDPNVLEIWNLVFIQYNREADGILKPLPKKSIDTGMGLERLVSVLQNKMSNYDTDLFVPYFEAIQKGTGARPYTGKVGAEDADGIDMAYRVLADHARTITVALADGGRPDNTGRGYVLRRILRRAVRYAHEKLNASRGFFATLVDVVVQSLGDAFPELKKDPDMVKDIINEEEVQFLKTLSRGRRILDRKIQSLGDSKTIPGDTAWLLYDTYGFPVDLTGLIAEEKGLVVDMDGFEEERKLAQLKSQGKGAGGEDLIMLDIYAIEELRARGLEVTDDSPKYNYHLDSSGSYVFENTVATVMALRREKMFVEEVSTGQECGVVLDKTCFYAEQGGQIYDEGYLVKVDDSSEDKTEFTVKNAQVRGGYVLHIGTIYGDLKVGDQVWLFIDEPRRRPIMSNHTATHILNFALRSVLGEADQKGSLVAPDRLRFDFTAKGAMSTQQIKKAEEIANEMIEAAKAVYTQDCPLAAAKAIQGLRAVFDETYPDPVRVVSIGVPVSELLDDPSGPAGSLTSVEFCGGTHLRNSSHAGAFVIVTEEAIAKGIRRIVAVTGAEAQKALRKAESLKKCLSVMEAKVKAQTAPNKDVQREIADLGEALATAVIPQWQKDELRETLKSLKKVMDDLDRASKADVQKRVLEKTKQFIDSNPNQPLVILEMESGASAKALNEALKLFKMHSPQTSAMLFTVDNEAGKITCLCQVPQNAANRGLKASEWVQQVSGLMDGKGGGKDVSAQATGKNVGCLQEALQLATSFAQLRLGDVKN
Source text: (§1) Furthermore, we examined the interaction of Tanshinone I with additional AlaRS CMT mutants capable of binding to Nrp1 and causing conformational changes by BLI and proteolysis assays on additional related mutants.
(§2) Figure 5 BLI and proteolytic digestion assay of AlaRS mutants with Tanshinone I. Binding sensorgrams for the interaction of Tanshinone I with immobilized AlaRS^R329H (A), AlaRS^G102R (C), AlaRS^R326W (E), and AlaRS^E337K (G). Each sensorgram contains five curves generated from five different concentrations. The KD values are presented as the mean ± SD and experiments were performed in triplicate. The AlaRS^N71Y (B), AlaRS^G102R (D), AlaRS^R326W (F), and AlaRS^E337K (H) proteins (in the presence and absence of Tanshinone I) were incubated with trypsin at different concentrations for three hours before the reactions were quenched, and the products were separated by SDS-PAGE.

AlaRS^R326W = biological target: T2, AlaRS^R326W (Homo sapiens, UniProt P49588, R326W); experiment: Proteolytic digestion assay (trypsin, SDS-PAGE); details: three hours
T2 construct: made in house; host or cells: E. coli BL21 (DE3), pET-21a
T2 sequence (P49588 1-968 R326W): T1 sequence (P49588 1-968 G102R) with R102G, R326W
Source text: as §1, §2

SMILES: Cc1coc2c1C(=O)C(=O)c1c-2ccc2c(C)cccc12 [Tanshinone I]
- Effect on proteolytic fragments / conformation (AlaRS^G102R): more prominent bands at 1/100 after Tanshinone I treatment
- Effect on proteolytic fragments / conformation (AlaRS^R326W): distinct proteolytic fragments after Tanshinone I treatment
